For 8 compounds, IC50 results are on record in patent publication US8063018B2, “Bivalent thrombin binding molecules comprising linkers” (National Research Council of Canada, priority 2004, dated 2011).

This assay concerns the target thrombin (Homo sapiens, UniProt P00734). Put plainly: Fibrinogen clotting assay catalyzed by thrombin. Type of assay: biochemical. The following applies: concentration needed to double the clotting time. The protocol: Curves represent OD420 time course after the addition of 0.6 nM thrombin in the presence of (♦) 0 nM; (◯) 0.5 nM; (□) 1 nM; (Δ) 1.5 nM; (⋄) 2.5 nM; (●) 3.75 nM; (▪) 6.25 nM; and (▴) […] of the inhibitor with linker (GS)n and n=2 (SEQ. ID. NO. 50) (a); n=4 (SEQ. ID. NO. 51) (b); n=6 (SEQ. ID. NO. 52) (c); n=8 (SEQ. ID. NO. 53) (d); n=10 (SEQ. ID. NO. 54) (e); and in the presence of (♦) 0 nM; (◯) 1 nM; (□) 2 nM; (Δ) 4 nM; (⋄) 6 nM; (●) 10 nM; (▪) 15 nM; and (▴) 25 nM of the inhibitor with linker (GS)n and n=12 (SEQ. ID. NO. 55) (f); n=14 (SEQ. ID. NO. 56) (g), at 37° C. The onset clotting time was determined as an intersection of the baseline and the extrapolated linear portion of the OD change curve. […] Curves (i) represent OD420 time course in the presence of (A) 0 nM; (◯) 1 nM; (□) 2 nM; (Δ) 4 nM; (⋄) 6 nM; and (●) 15 nM of the inhibitor with linker […] (SEQ. ID. NO. 103), at 37° C. […] represent OD420 time course in the presence of (◯) 0 nM; (□) 2 nM; (Δ) 4 nM; (⋄) 6 nM; (●) 8 nM; (▪) 10 nM; (▴) 12 nM; and (♦) 15 nM; of the inhibitor with linker […] (SEQ. ID. NO. 58) at 25° C. Curves (k) represent OD420 time course in the presence of (◯) 0 nM; (□) 0.5 nM; (Δ) 1 nM; (⋄) 2 nM; (●) 3 nM; (▪) 4 nM; (▴) 5 nM; and (♦) 6 nM; of the inhibitor with linker […] (SEQ. ID. NO. 105) at 37° C. Curves (I) represent OD420 time course in the presence of (◯) 0 nM; (□) 0.25 nM; (Δ) 0.5 nM; (⋄) 1 nM; (●) 1.5 nM; (▪) 2 nM; and (▴) 2.5 nM; of the inhibitor with linker […] (SEQ. ID. NO. 104) at 37° C. Curves (m) represent OD420 time course in the presence of (◯) 0 nM; (□) 2 nM; (Δ) 4 nM; (⋄) 6 nM; (●) 8 nM; (▴) 10 nM; and (A) 12 nM; of the inhibitor with linker […] (SEQ. ID. NO. 106) at 37° C. Curves (n) represent OD420 time course in the presence of (◯) 0 nM; (□) 1 nM; (Δ) 2 nM; (⋄) 3 nM; (●) 4 nM; (▪) 5 nM; (▴) 6 nM; and (♦) 7 nM; of the inhibitor with linker […] (SEQ. ID. NO. 107) at 37° C. Curves (o) represent OD420 time course in the presence of (◯) 0 nM; (□) 4 nM; and (Δ) 8 nM; of the inhibitor with linker GQSHNR (SEQ. ID. NO. 108) at 37° C.
Other experimental conditions were as used for the assays described in FIG. 2.
Clotting assays were carried out by use of the protocols described previously (DiMaio and others, 1990, 21698-21703; Witting and others, 1992, 737-743). The assay employs bovine plasma fibrinogen dissolved at 0.1% in 50 mM Tris-Cl, 100 mM NaCl, 0.1% PEG-8000 at pH 7.6 (i.e. the clotting buffer). Each assay mixture contained a certain concentration of the peptide, and the reaction was started by the addition of human thrombin to a final concentration of 0.6-1.2 nM. Optical absorbance increase at 420 nm caused by fibrin clot formation was measured at 25° C. or 37° C. using the Spectramax plate reader. The onset clotting time was determined as an intersection of the baseline and the extrapolated linear portion of the OD change curve. The concentration of a peptide needed to double the clotting time was defined as IC50 (DiMaio and others, 1990, 21698-21703). Kinetic amidolytic curves were obtained in clotting buffer at 25° C. using eight inhibitor concentrations and three to five concentrations of the chromogenic substrate S-2238 (Chromogenix) (DiMaio and others, 1990, 21698-21703). Inhibition constants were extracted from Lineweaver-Burk equation by using weighted linear regression. Errors in Ki determination were estimated by using Monte-Carlo sampling with 1-3% variance of the experimental points.

The structures appear in SMILES notation.

What is called IC50 is the point on the concentration scale where inhibition reaches its midpoint. A higher IC50 goes with weaker potency. In the case of `CC[C@H](C)[C@H](NC(=O)[C@H](CCC(=O)O)NC(=O)[C@H](CCC(=O)O)NC(=O)[C@H](Cc1ccccc1)NC(=O)[C@H](CC(=O)O)NC(=O)CNC(=O)[C@H](CO)NC(=O)CNC(=O)[C@H](CO)NC(=O)CNC(=O)[C@H]1CCCCN1C(=O)[C@H](CCCN=C(N)N)NS(=O)(=O)c1ccc(C(C)(C)C)cc1)C(=O)N1CCC[C@H]1C(=O)N[C@@H](CCC(=O)O)C(=O)N[C@@H](CCC(=O)O)C(=O)N[C@@H](Cc1ccc(O)cc1)C(=O)N[C@@H](CC(C)C)C(=O)N[C@@H](CCC(N)=O)C(=O)O` [P3149], for the setting “IC50, nM (37° C.), 37° C.”, the IC50 is 9.7 ± 0.7 nM.

Compound `CC[C@H](C)[C@H](NC(=O)[C@H](CCC(=O)O)NC(=O)[C@H](CCC(=O)O)NC(=O)[C@H](Cc1ccccc1)NC(=O)[C@H](CC(=O)O)NC(=O)CNC(=O)[C@H](CO)NC(=O)CNC(=O)[C@H](CO)NC(=O)CNC(=O)[C@H](CO)NC(=O)CNC(=O)[C@H](CO)NC(=O)CNC(=O)[C@H](CO)NC(=O)CNC(=O)[C@H](CO)NC(=O)CNC(=O)[C@H](CO)NC(=O)CNC(=O)[C@H](CO)NC(=O)CNC(=O)[C@H]1CCCCN1C(=O)[C@H](CCCN=C(N)N)NS(=O)(=O)c1ccc(C(C)(C)C)cc1)C(=O)N1CCC[C@H]1C(=O)N[C@@H](CCC(=O)O)C(=O)N[C@@H](CCC(=O)O)C(=O)N[C@@H](Cc1ccc(O)cc1)C(=O)N[C@@H](CC(C)C)C(=O)N[C@@H](CCC(N)=O)C(=O)O` [P3152] came in with an IC50 (IC50, nM (37° C.), 37° C.) of 0.7 ± 0.1 nM.

`CC[C@H](C)[C@H](NC(=O)[C@H](CCC(=O)O)NC(=O)[C@H](CCC(=O)O)NC(=O)[C@H](Cc1ccccc1)NC(=O)[C@H](CC(=O)O)NC(=O)CNC(=O)[C@H](CO)NC(=O)[C@@H](NC(=O)[C@H](CCCCN)NC(=O)[C@H](CCC(=O)O)NC(=O)[C@H](Cc1ccc(O)cc1)NC(=O)[C@H](Cc1c[nH]cn1)NC(=O)[C@@H]1CCCN1C(=O)[C@H](CO)NC(=O)CNC(=O)[C@H](CO)NC(=O)[C@@H](NC(=O)[C@H](CCCCN)NC(=O)[C@H](CCC(=O)O)NC(=O)[C@H](Cc1ccc(O)cc1)NC(=O)[C@H](Cc1c[nH]cn1)NC(=O)[C@@H]1CCCN1C(=O)[C@H](CO)NC(=O)CNC(=O)[C@H]1CCCCN1C(=O)[C@H](CCCNC(=N)N)NS(=O)(=O)c1ccc(C(C)(C)C)cc1)C(C)C)C(C)C)C(=O)N1CCC[C@H]1C(=O)N[C@@H](CCC(=O)O)C(=O)N[C@@H](CCC(=O)O)C(=O)N[C@@H](Cc1ccc(O)cc1)C(=O)N[C@@H](CC(C)C)C(=O)N[C@@H](CCC(N)=O)C(=O)O` [P3161] displayed an IC50 (IC50, nM (25° C.), 25° C.) of 0.7 nM.

For the compound `CC[C@H](C)[C@H](NC(=O)[C@H](CCC(=O)O)NC(=O)[C@H](CCC(=O)O)NC(=O)[C@H](Cc1ccccc1)NC(=O)[C@H](CC(=O)O)NC(=O)CNC(=O)[C@H](CO)NC(=O)[C@@H](NC(=O)[C@H](CCCCN)NC(=O)[C@H](CCC(=O)O)NC(=O)[C@H](Cc1ccc(OP(=O)(O)O)cc1)NC(=O)[C@H](Cc1c[nH]cn1)NC(=O)[C@@H]1CCCN1C(=O)[C@H](CO)NC(=O)CNC(=O)[C@H](CO)NC(=O)[C@@H](NC(=O)[C@H](CCCCN)NC(=O)[C@H](CCC(=O)O)NC(=O)[C@H](Cc1ccc(OP(=O)(O)O)cc1)NC(=O)[C@H](Cc1c[nH]cn1)NC(=O)[C@@H]1CCCN1C(=O)[C@H](CO)NC(=O)CNC(=O)[C@H]1CCCCN1C(=O)[C@H](CCCNC(=N)N)NS(=O)(=O)c1ccc(C(C)(C)C)cc1)C(C)C)C(C)C)C(=O)N1CCC[C@H]1C(=O)N[C@@H](CCC(=O)O)C(=O)N[C@@H](CCC(=O)O)C(=O)N[C@@H](Cc1ccc(O)cc1)C(=O)N[C@@H](CC(C)C)C(=O)N[C@@H](CCC(N)=O)C(=O)O` [P3162], 19 ± 1 nM corresponded to half-maximal inhibition (IC50, nM (25° C.), 25° C.) (IC50). Compared with the last compound, the IC50 is about 27-fold higher.

Take `CC[C@H](C)[C@H](NC(=O)[C@H](CCC(=O)O)NC(=O)[C@H](CCC(=O)O)NC(=O)[C@H](Cc1ccccc1)NC(=O)[C@H](CC(=O)O)NC(=O)CNC(=O)[C@H](CO)NC(=O)CNC(=O)[C@H](CO)NC(=O)CNC(=O)[C@H](CO)NC(=O)CNC(=O)[C@H](CO)NC(=O)CNC(=O)[C@H](CO)NC(=O)CNC(=O)[C@H](CO)NC(=O)CNC(=O)[C@H](CO)NC(=O)CNC(=O)[C@H](CO)NC(=O)CNC(=O)[C@@H](N)CSSC[C@H](NC(=O)CNC(=O)[C@H]1CCCCN1C(=O)[C@H](CCCNC(=N)N)NS(=O)(=O)c1ccc(C(C)(C)C)cc1)C(=O)O)C(=O)N1CCC[C@H]1C(=O)N[C@@H](CCC(=O)O)C(=O)N[C@@H](CCC(=O)O)C(=O)N[C@@H](Cc1ccc(O)cc1)C(=O)N[C@@H](CC(C)C)C(=O)N[C@@H](CCC(N)=O)C(=O)O` [P3172-P3165]: for the setting “IC50, nM (37° C.), 37° C.”, half-maximal inhibition (IC50) required 1.1 ± 0.2 nM.

In turn, `CC[C@H](C)[C@H](NC(=O)[C@H](CCC(=O)O)NC(=O)[C@H](CCC(=O)O)NC(=O)[C@H](Cc1ccccc1)NC(=O)[C@H](CC(=O)O)NC(=O)CNC(=O)[C@H](CO)NC(=O)CNC(=O)[C@H](CO)NC(=O)CNC(=O)[C@H](CO)NC(=O)CNC(=O)[C@H](CO)NC(=O)CNC(=O)[C@H](CO)NC(=O)CNC(=O)[C@H](CCCCN)NC(=O)CNC(=O)[C@H](CO)NC(=O)CNC(=O)[C@H](CO)NC(=O)CNC(=O)[C@H](CO)NC(=O)CNC(=O)[C@H](CO)NC(=O)CNC(=O)[C@H]1CCCCN1C(=O)[C@H](CCCNC(=N)N)NS(=O)(=O)c1ccc(C(C)(C)C)cc1)C(=O)N1CCC[C@H]1C(=O)N[C@@H](CCC(=O)O)C(=O)N[C@@H](CCC(=O)O)C(=O)N[C@@H](Cc1ccc(O)cc1)C(=O)N[C@@H](CC(C)C)C(=O)N[C@@H](CCC(N)=O)C(=O)O` [P3174] gave an IC50 (IC50, nM (25° C.), 25° C.) of 1.6 ± 0.9 nM.

Consider `CC[C@H](C)[C@H](NC(=O)[C@H](CCC(=O)O)NC(=O)[C@H](CCC(=O)O)NC(=O)[C@H](Cc1ccccc1)NC(=O)[C@H](CC(=O)O)NC(=O)CNC(=O)[C@H](CC(N)=O)NC(=O)[C@H](CO)NC(=O)[C@@H](NC(=O)[C@H](CCCCN)NC(=O)[C@H](CC(=O)O)NC(=O)[C@@H](NC(=O)[C@@H]1CCCN1C(=O)[C@@H](NC(=O)[C@H](CC(N)=O)NC(=O)[C@H](CC(C)C)NC(=O)[C@H](CC(=O)O)NC(=O)[C@H](CC(C)C)NC(=O)[C@@H](NC(=O)CNC(=O)[C@H]1CCCCN1C(=O)[C@H](CCCNC(=N)N)NS(=O)(=O)c1ccc(C(C)(C)C)cc1)[C@@H](C)O)[C@@H](C)O)C(C)C)[C@@H](C)O)C(=O)N1CCC[C@H]1C(=O)N[C@@H](CCC(=O)O)C(=O)N[C@@H](CCC(=O)O)C(=O)N[C@@H](Cc1ccc(O)cc1)C(=O)N[C@@H](CC(C)C)C(=O)N[C@@H](CCC(N)=O)C(=O)O` [P3181], for which half-maximal inhibition (IC50, nM (37° C.), 37° C.) (IC50) was put at 1.9 ± 0.2 nM.

As to `CC[C@H](C)[C@H](NC(=O)[C@H](CCC(=O)O)NC(=O)[C@H](CCC(=O)O)NC(=O)[C@H](Cc1ccccc1)NC(=O)[C@H](CC(=O)O)NC(=O)CNC(=O)[C@H](CC(=O)O)NC(=O)[C@H](CC(N)=O)NC(=O)[C@H](Cc1c[nH]cn1)NC(=O)[C@H](CC(C)C)NC(=O)[C@H](CCC(N)=O)NC(=O)[C@@H]1CCCN1C(=O)[C@H](CCCNC(=N)N)NC(=O)[C@@H]1CCCN1C(=O)[C@@H](NC(=O)[C@@H](NC(=O)[C@H](CO)NC(=O)CNC(=O)[C@H]1CCCCN1C(=O)[C@H](CCCNC(=N)N)NS(=O)(=O)c1ccc(C(C)(C)C)cc1)C(C)C)C(C)C)C(=O)N1CCC[C@H]1C(=O)N[C@@H](CCC(=O)O)C(=O)N[C@@H](CCC(=O)O)C(=O)N[C@@H](Cc1ccc(O)cc1)C(=O)N[C@@H](CC(C)C)C(=O)N[C@@H](CCC(N)=O)C(=O)O` [P3209], the IC50 (IC50, nM (37° C.), 37° C.) turned out to be 1.1 nM.
